These results are taken from patent US20260008775A1, “AZOLE MODULATORS OF CHOLESTEROL BIOSYNTHESIS AND THEIR USE FOR PROMOTING REMYELINATION” (GENENTECH, INC., priority 2022, published 2026).

The subject of experiment [1] is zymostenol accumulation (EBP) in EpiSC-derived OPCs. The experiment can be described thus: GC/MS-based sterol profiling, zymostenol accumulation in EpiSC-derived OPCs. To be noted: Mus musculus, 24 h, EpiSC-derived OPCs, 24 hr, 8 doses from 0.15 nM to 333 nM; read-out: Mouse Zymostenol GCMS EC50. The format is cell-based, mouse. The protocol:
To assess effects of treatments on OPCs, all treatments were assayed in two or more independent platings of epiblast stem cell-derived OPCs (EpiSC). EpiSC-derived OPCs were obtained using in vitro differentiation protocols and culture conditions described previously (Najm et al, 2011, Nature Methods). OPCs were expanded and frozen down in aliquots. OPCs were thawed into growth conditions for at least one passage before use in further assays.
Sterols were monitored using a modified Folch wash protocol (Hubler et al, 2018, Nature). EpiSC-derived OPCs were plated at 100,000 cells per well in PO- and laminin-coated 96-well plates in N2B27 media without growth factors. After 24 hours, cells were rinsed with saline and plates were frozen. Cholesterol-d7 standard was then added to each well before drying under nitrogen stream and derivatization with 55 μl of bis(trimethylsilyl) trifluoroacetamide. After derivatization, 2 μl were analyzed by gas chromatography/mass spectrometry using an Agilent 5973 Network Mass Selective Detector equipped with a 6890 gas chromatograph system and a HP-5MS capillary column (30 m×0.25 mm×[…]). Samples were analyzed in full scan mode using electron impact ionization; ion fragment peaks were integrated to calculate sterol abundance, and quantitation was relative to cholesterol-d7. The following ion fragments were used to quantitate each metabolite: cholesterol-d7 (465), FF-Mas (482), cholesterol (368), zymostenol (458), zymosterol (456), Desmosterol (456, 343), 7-dehydrocholesterol (456, 325), lanosterol (393), lathosterol (458), 14-dehydrozymostenol (456, 351). […] All standards were obtained from Avanti Polar Lipids unless otherwise indicated. Calibration curves were generated by injecting varying concentrations of sterol standards and maintaining a fixed amount of cholesterol-D7. For normalized zymostenol accumulation results, the total amount of zymostenol measured after drug treatment was divided by the total amount of zymostenol accumulated after 24 hr treatment with 100 nM positive control reference.

In experiment [2] the target is human emopamil binding protein and human 7-dehydrocholesterol reductase (hEBP-DHCR7) (Homo sapiens (Human), UniProt Q15125). The experiment can be described thus: hEBP-DHCR7 radioligand binding assay (filter binding, membranes of co-expressing HEK293 cells). As to conditions: competition with [3H] radioligand, 8 doses 0.06 to 5000 nM, Ki calculated from IC50. The protocol:
Membrane Preparation: human emopamil binding protein and human 7-dehydrocholesterol reductase co-expressing cells were generated by transient transfecting host human embryonic kidney (HEK) 293 cells with 2 DNA constructs containing each protein's coding sequence. Cells were suspension cultured at 37° C. with 5% CO2 in […] 293 Expression Medium (Thermofisher). Whole cell membrane was prepared by harvesting the cell pellet, adding cold membrane buffer (50 mM Tris, pH7.5, 1× Roche COMPLETE EDTA-free protease inhibitor cocktail) 10 times volume of the cell pellets weight, lysing cell pellet on ice by using Dounce homogenizer, spinning at 200 g 4° C. for 15 min, collecting supernatant and spinning again at 25000 g 4° C. for 50 min, transferring pellet to Dounce homogenizer, re-suspending pellet by homogenizing in membrane buffer on ice to reach ˜25 mg/mL, then keeping whole cell membrane aliquots at −80° C.
Compounds were prepared in a 96-well U bottom plate (Corning Cat #7007) using an Echo550 machine and 10 mM compound DMSO stock solution, followed by an 8-dose 5-fold serial dilutions protocol with final testing compound concentration ranging from 0.06 to 5000 nM, with DMSO back fill to 100 nL/well and n=2. […] The UniFilter-96 GF/B plates (PerkinElmer Cat #6005177) were pre-treated by adding 50 μl/well of 0.3% (v/v) Polyethylenimine (PEI) (branched, Sigma Cat #408727) to UniFilter-96 GF/B plates. The plates were sealed and incubated at 4° C. for 3 hrs. Then, the plates were washed with ice-cold assay buffer 3 times. The radioligand binding assay was prepared by adding assay buffer diluted hEBP-DHCR7 membrane at 66.7 µg/ml×150 μl/well into the 96-well compound plate to reach 10 μg membrane per well. Then, the assay buffer diluted [3H]—(S)-6-(2-Methyl-3-(6-(trifluoromethyl)pyridin-3-yl)propyl)-2-thia-6-azaspiro[3.4]octane 2,2-dioxide (Moravek, Cat #MT-1003106) was added at 25 nM×50 μl/well. Following this, the plate was centrifuged at 1000 rpm for 30 secs. The plate was then sealed and agitated at 600 rpm at 22° C. for 5 min, and then incubated at 22° C. for 3 hrs. The incubation was stopped by transferring the binding solution to the pre-treated UniFilter-96 GF/B plate, vacuum filtrated, and then washed four times with ice-cold assay buffer. Following this, the plates were dried at 37° C. for 45 min. The plates were then sealed at the bottom. 40 µl/well of scintillation cocktail was added to the plates. A MicroBeta2 microplate counter was then used to read the plate and analyze the data. For reference and test compounds, the results are expressed as % Inhibition, using the normalization equation: N=100−100×(U−C2)/(C1−C2), where U is the unknown value, C1 is the average of high controls, and C2 is the average value of low controls.

Molecules are shown by their SMILES. Some results are limits rather than exact numbers.

Sequence of human emopamil binding protein and human 7-dehydrocholesterol reductase (hEBP-DHCR7) (Q15125 whole entry): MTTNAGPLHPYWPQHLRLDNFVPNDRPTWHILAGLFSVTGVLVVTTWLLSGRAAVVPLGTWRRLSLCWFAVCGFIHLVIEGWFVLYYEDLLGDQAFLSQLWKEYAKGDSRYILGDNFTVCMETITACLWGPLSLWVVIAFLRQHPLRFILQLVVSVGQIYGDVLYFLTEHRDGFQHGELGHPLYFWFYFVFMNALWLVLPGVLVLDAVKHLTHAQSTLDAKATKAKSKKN

`CC(C)n1nc(-c2cc(C(F)(F)F)ccn2)nc1[C@@H]1CC[C@@H](N2CCOCC2)C1` (single isomer, unassigned) [27*]: the EC50 (as a rule, the concentration that produces a half-maximal response) in experiment [1] is 141 nM.

Turning to `CC(C)n1nc(-c2cncc(C(F)(F)F)c2)cc1[C@H]1[C@@H]2CC(N3CCOC[C@@H]3C)C[C@@H]21` (single isomer, unassigned) [43*], the inhibition constant Ki (in general, a measure of affinity in units of concentration, obtained from inhibition or displacement) in experiment [2] is 65 nM. In experiment [1], the EC50 came out at 243 nM.

With `CC(C)n1nc(-c2cncc(C(F)(F)F)c2)cc1[C@H]1[C@@H]2CC(N3CCOC[C@H]3C)C[C@@H]21` (single isomer, unassigned) [44*], in experiment [2], the inhibition constant Ki was 65 nM. For the same molecule, the EC50 in experiment [1] came out at 62 nM.

Take `CC(C)n1nc(-c2cncc(C(F)(F)F)c2)cc1[C@@H]1CC[C@@H](N2CCOCC2)C1` (single isomer, unassigned) [59*]: the inhibition constant Ki in experiment [2] was 73.4 nM. Moreover, the concentration giving a half-maximal response (EC50) in experiment [1] came out at 19.2 nM.

With `CC(C)n1nc(-c2cncc(C(F)(F)F)c2)cc1[C@H]1CC[C@@H](N2CCCOCC2)C1` (single isomer, unassigned) [64*], the inhibitory constant (Ki) in experiment [2] is 15.6 nM. Also, the EC50 in experiment [1] came out at 2.75 nM.

As to `CC(C)n1nc(-c2cccc(C(F)(F)F)n2)nc1[C@H]1CC[C@H](N2CCOC[C@@H]2C)CC1` (single isomer, unassigned) [78*], in experiment [1], the EC50 is over 333 nM.

Turning to `CC(C)n1nc(-c2cccc(C(F)(F)F)n2)nc1[C@H]1CC[C@@H](N2CCOC[C@@H]2C)CC1` (single isomer, unassigned) [79*], in experiment [1], the concentration giving a half-maximal response (EC50) was 23.1 nM.

For `CC(C)n1nc(-c2cccc(C(F)(F)F)n2)nc1[C@H]1CC[C@H](N2CCOC[C@H]2C)CC1` (single isomer, unassigned) [80*], the Ki in experiment [2] was 528 nM. The EC50 in experiment [1] was determined as 112 nM.

In the case of `CC(C)n1nc(-c2cccc(C(F)(F)F)n2)nc1[C@H]1CC[C@@H](N2CCOC[C@H]2C)CC1` (single isomer, unassigned) [81*], the half-maximal effective concentration (EC50) in experiment [1] is 27.3 nM.

On to `CC(C)n1nc(-c2ccc(C(F)(F)F)nc2)cc1[C@@H]1CC[C@@H](N2CCN(CCO)CC2)C1` (single isomer, unassigned) [86*], for which the Ki in experiment [2] is 31.2 nM. For the same molecule, the concentration giving a half-maximal response (EC50) in experiment [1] turned out to be 28.7 nM.

In the case of `CC(C)n1nc(-c2ccc(C(F)(F)F)nc2)cc1[C@H]1CC[C@H](N2CCN(CCO)CC2)C1` (single isomer, unassigned) [88*], in experiment [2], the inhibition constant (Ki) is 88.2 nM. In experiment [1], the concentration giving a half-maximal response (EC50) is 627 nM.

In the case of `CC(C)n1nc(-c2ccc(C(F)(F)F)nc2)cc1[C@H]1CC[C@@H](N2CCN(CCO)CC2)C1` (single isomer, unassigned) [89*], the Ki in experiment [2] is 42.4 nM. Further, the EC50 in experiment [1] turned out to be 21.9 nM.

Turning to `COCCN1CCN([C@@H]2CC[C@@H](c3cc(-c4ccc(C(F)(F)F)nc4)nn3C(C)C)C2)CC1` (single isomer, unassigned) [90*], the Ki in experiment [2] was 11 nM. Also, the 50% effective concentration (EC50) in experiment [1] was determined as 33.7 nM.

For `COCCN1CCN([C@H]2CC[C@H](c3cc(-c4ccc(C(F)(F)F)nc4)nn3C(C)C)C2)CC1` (single isomer, unassigned) [92*], the inhibition constant (Ki) in experiment [2] was 77.6 nM. Also, the EC50 in experiment [1] came out at 252 nM.

Take `CC(C)n1nc(-c2cncc(C(F)(F)F)c2)nc1[C@@H]1CC[C@@H](N2CCOCC2)C1` (single isomer, unassigned) [Compound 115*]: the Ki in experiment [2] was 35 nM. For the same molecule, the half-maximal effective concentration (EC50) in experiment [1] is 97.2 nM.

Turning to `CC(C)n1nc(-c2cncc(C(F)(F)F)c2)nc1[C@H]1CC[C@H](N2CCOCC2)C1` (single isomer, unassigned) [Compound 116*], the Ki in experiment [2] was 169 nM. Besides, the EC50 in experiment [1] was found to be 49 nM.

For the molecule `CC(C)n1nc(-c2cncc(C(F)(F)F)c2)nc1[C@@H]1CC[C@H](N2CCOCC2)C1` (single isomer, unassigned) [Compound 117*], the Ki in experiment [2] was 34.6 nM. For the same molecule, the EC50 in experiment [1] stood at 13.5 nM.

Turning to `CC(C)n1nc(-c2cnc(C(F)(F)F)nc2)cc1[C@H]1CC[C@H](N2CCO[C@@H](CF)C2)C1` (single isomer, unassigned) [Compound 130*], the Ki in experiment [2] was 392 nM. Also, in experiment [1], the EC50 was 619 nM.

For `CC(C)n1nc(-c2cnc(C(F)(F)F)nc2)cc1[C@H]1CC[C@@H](N2CCO[C@@H](CF)C2)C1` (single isomer, unassigned) [Compound 131*], in experiment [2], the Ki was 106 nM. In addition, the EC50 in experiment [1] stood at 168 nM.

In the case of `CC(C)n1nc(-c2cnc(C(F)(F)F)nc2)cc1[C@H]1CC[C@H](N2CCO[C@H](CF)C2)C1` (single isomer, unassigned) [Compound 132*], in experiment [2], the Ki is 88 nM. In addition, the concentration for a half-maximal effect (EC50) in experiment [1] is 352 nM.

In the case of `CC(C)n1nc(-c2cnc(F)c(C(F)(F)F)c2)nc1[C@@H]1CC[C@H](N2CCOCC2)C1` (single isomer, unassigned) [Compound 157*], the inhibitory constant (Ki) in experiment [2] was 51 nM. Also, the EC50 in experiment [1] was 59.2 nM.

Regarding `CC(C)n1nc(-c2cnc(F)c(C(F)(F)F)c2)nc1[C@H]1CC[C@@H](N2CCOCC2)C1` (single isomer, unassigned) [Compound 158*], the inhibition constant (Ki) in experiment [2] is 33.8 nM. Moreover, in experiment [1], the EC50 amounted to 5.38 nM.

With `CC(C)n1nc(-c2cnc(F)c(C(F)(F)F)c2)nc1[C@H]1CC[C@H](N2CCOCC2)C1` (single isomer, unassigned) [Compound 159*], in experiment [2], the Ki is 12.2 nM. For the same molecule, the EC50 in experiment [1] is 4.25 nM.

Turning to `CC(C)n1nc([C@H]2CC[C@H](C(F)(F)F)CC2)nc1[C@H]1[C@@H]2C[C@H](N3CCOC[C@H]3C)C[C@@H]21` (single isomer, unassigned) [Compound 164*], in experiment [2], the inhibition constant Ki was 1640 nM. In addition, the EC50 in experiment [1] is 143 nM.

As for `CC(C)n1nc(-c2ccc(C(F)(F)F)nc2)nc1[C@H]1CC[C@H](N2CCO[C@H](CF)C2)C1` (single isomer, unassigned) [Compound 168], the Ki in experiment [2] is 388 nM. The EC50 in experiment [1] worked out at 229 nM.

Take `CC(C)n1nc(-c2ccc(C(F)(F)F)nc2)nc1[C@@H]1CC[C@@H](N2CCCOCC2)C1` [Compound 3, 4-((1R,3R)-3-(1-isopropyl-3-(6-(trifluoromethyl)pyridin-3-yl)-1H-1,2,4-triazol-5-yl)cyclopentyl)-1,4-oxazepane]: in experiment [2], the Ki was 32.4 nM. Further, in experiment [1], the EC50 worked out at 39.5 nM.

Take `CC(C)n1nc(-c2cccc(OC(F)F)c2)nc1[C@H]1[C@@H]2C[C@@H](N3CCCOCC3)C[C@@H]21` [Compound 74, 4-((1R,3s,5S,6r)-6-(3-(3-(Difluoromethoxy)phenyl)-1-isopropyl-1H-1,2,4-triazol-5-yl)bicyclo[3.1.0]hexan-3-yl)-1,4-oxazepane]: the inhibition constant (Ki) in experiment [2] is 37 nM. Further, the EC50 in experiment [1] is 168 nM.

On to `CC(C)n1nc(-c2cccc(OC(F)F)c2)nc1[C@H]1[C@@H]2C[C@H](N3CCCOCC3)C[C@@H]21` [Compound 75, 4-((1R,3r,5S,6r)-6-(3-(3-(Difluoromethoxy)phenyl)-1-isopropyl-1H-1,2,4-triazol-5-yl)bicyclo[3.1.0]hexan-3-yl)-1,4-oxazepane], for which the Ki in experiment [2] is 12 nM. The EC50 in experiment [1] was determined as 2.83 nM.
